The assay concerns the target Kelch domain of human Keap1 (residues 321–609) (Homo sapiens, UniProt Q14145). Description: Isothermal titration calorimetry. The assay is classed as binding. Particulars: ITC, pH 7; for TΔS (entropy term upon binding) / ΔG (change in Gibbs free energy upon binding) / ΔH (change in enthalpy upon binding): T = 298.15 K, 50 mM sodium phosphate, 100 mM NaCl, 1 mM DTT, Table 1 set; for Kd: Kd to Kelch, 25°C.

The source of these data is paper PMC3725505 (Scientific Reports, 2013).

Where only a bound is given, the exact number is not on record here.

As a reminder, the Kd is the concentration at which binding is half-saturated. Higher therefore signals a looser complex.

Kelch domain of human Keap1 (residues 321–609), sequence (Q14145 321-609): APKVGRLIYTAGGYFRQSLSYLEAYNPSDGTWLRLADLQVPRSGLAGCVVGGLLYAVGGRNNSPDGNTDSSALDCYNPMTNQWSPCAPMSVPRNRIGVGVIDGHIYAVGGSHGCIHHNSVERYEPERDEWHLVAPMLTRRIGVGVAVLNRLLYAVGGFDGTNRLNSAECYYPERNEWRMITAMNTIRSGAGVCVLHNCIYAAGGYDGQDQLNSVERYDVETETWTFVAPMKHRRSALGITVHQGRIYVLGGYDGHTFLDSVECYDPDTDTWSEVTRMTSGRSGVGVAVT

With “Ac-FAQLQLDPETGEFLPIQPAQ-NH2 [NRF2 site 1 E78P]”, the “TΔS (entropy term upon binding)” value is -23.6 kJ/mol, the “ΔG (change in Gibbs free energy upon binding)” value was -46.53 ± 0.13 kJ/mol and the “ΔH (change in enthalpy upon binding)” value was -70.12 ± 0.21 kJ/mol.

For Ac-INVRKRNVESGEEELASKLD-NH2 [PGAM5], the “TΔS (entropy term upon binding)” value is -42.05 kJ/mol, the “ΔG (change in Gibbs free energy upon binding)” value is -37.9 ± 0.13 kJ/mol and the “ΔH (change in enthalpy upon binding)” value was -80 ± 0.25 kJ/mol.

As for “Ac-ANGNAENEENGEQEADNEVD-NH2 [PTMA iso 1]”, the “TΔS (entropy term upon binding)” value was -33.6 kJ/mol, the “ΔG (change in Gibbs free energy upon binding)” value is -28.1 ± 0.21 kJ/mol and the “ΔH (change in enthalpy upon binding)” value was -61.67 ± 0.502 kJ/mol.

Take `CC[C@H](C)[C@H](NC(=O)[C@@H]1CCCN1C(=O)[C@H](CC(C)C)NC(=O)[C@H](Cc1ccccc1)NC(=O)[C@H](CCC(=O)O)NC(=O)CNC(=O)[C@@H](NC(=O)[C@H](CCC(=O)O)NC(=O)[C@H](CCC(=O)O)NC(=O)[C@H](CC(=O)O)NC(=O)[C@H](CC(C)C)NC(=O)[C@H](CCC(N)=O)NC(=O)[C@H](CC(C)C)NC(=O)[C@H](CCC(N)=O)NC(=O)[C@H](C)NC(=O)[C@H](Cc1ccccc1)NC(C)=O)[C@@H](C)O)C(=O)N[C@@H](CCC(N)=O)C(=O)N1CCC[C@H]1C(=O)N[C@@H](C)C(=O)N[C@@H](CCC(N)=O)C(N)=O` [NRF2 site 1]: the “TΔS (entropy term upon binding)” value was -27.4 kJ/mol, the “ΔG (change in Gibbs free energy upon binding)” value was -43.51 ± 0.13 kJ/mol and the “ΔH (change in enthalpy upon binding)” value was -70.96 ± 0.21 kJ/mol.

In the case of Ac-SLEEPHSPETGEKVVAGEVN-NH2 [WTX], the “TΔS (entropy term upon binding)” value was -37.8 kJ/mol, the “ΔG (change in Gibbs free energy upon binding)” value is -37.7 ± 0.17 kJ/mol, the “ΔH (change in enthalpy upon binding)” value was -75.48 ± 0.38 kJ/mol and the Kd was in the range of 0.1 to 0.2 µM.

Take Ac-ANGNANEENGEQEADNEVD-NH2 [PTMA iso 2]: the “TΔS (entropy term upon binding)” value was -40.5 kJ/mol, the “ΔG (change in Gibbs free energy upon binding)” value is -31.8 ± 0.13 kJ/mol and the “ΔH (change in enthalpy upon binding)” value was -72.34 ± 0.25 kJ/mol.

In the case of `CSCC[C@H](NC(=O)[C@H](CCC(N)=O)NC(=O)[C@H](CC(C)C)NC(=O)[C@H](CO)NC(=O)[C@H](CCC(N)=O)NC(=O)[C@H](CC(C)C)NC(=O)[C@H](CCC(=O)O)NC(=O)CNC(=O)[C@@H](NC(=O)[C@H](CO)NC(=O)[C@@H]1CCCN1C(=O)[C@H](CC(=O)O)NC(=O)[C@@H](NC(=O)[C@H](CCC(=O)O)NC(=O)[C@H](CCCCN)NC(=O)[C@H](CO)NC(=O)[C@H](CO)NC(=O)[C@H](CC(C)C)NC(C)=O)C(C)C)[C@@H](C)O)C(=O)N1CCC[C@H]1C(=O)N[C@@H](CCC(=O)O)C(N)=O` [p62], the “TΔS (entropy term upon binding)” value is -43.26 kJ/mol, the “ΔG (change in Gibbs free energy upon binding)” value is -33.6 ± 0.13 kJ/mol, the “ΔH (change in enthalpy upon binding)” value was -76.9 ± 0.29 kJ/mol and the Kd is greater than 1 µM.
